Our source for the IC50 values is patent US20060063784A1, “Method of using substituted pyrazolo [1,5-a] pyrimidines” (priority 2004, published 2006).

Experiment [1] has as its system 80S14 (p21-deficient) cells. As to the kind of experiment: Cytotoxicity assay using isogenic cell lines: IC50 in 80S14 (p21-deficient) cells, SRB. In kind it is cell-based, human. The settings on record: SRB. Summed up:
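IC50 is the concentration halving proliferation relative to untreated controls, read from SRB absorbance (560 nm) after TCA fixation. Test agent dilutions (5 pM–50 μM or 170 pg/ml–10 μg/ml) were left on p21-deficient 80S14 cells (12,000/well, pre-incubated overnight) for 5 days at 37 °C.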

Another experiment concerns LoVo Colon cell line. The experiment can be described thus: Cytotoxicity assay using LoVo colon cell line, SRB. In kind it is cell-based. The settings on record: 4 days incubation, SRB, read-out: Inhibition of LoVo. The procedure:
Cytotoxicity Assay Using LoVo Colon Cell Line: • 1. LoVo Colon cell lines were cultured in RPMI 1640 medium (Gibco/Invitrogen Life Sciences) supplemented with 10% fetal bovine serum (FBS, Gibco) and 50 μg/ml entamicin (Gibco). Cells were maintained at 37° C. under 7% CO2. • 2. Cells were seeded in 96-well microtiter plates (Corning/Costar) in a volume of 0.15 ml of growth medium (4000 cells/well). Plates were incubated at 37° C. overnight (18-24 hours). • 3. Serial dilutions of the test agent were added to each well. Dilutions were prepared in growth medium. One of two dose ranges was used: 5 pM to 20 μM or 170 pg/ml to 10 μg/ml. Cells were incubated with the test compounds for 4 days at 37° C. • 4. Surviving cells were processed using the SRB asay, as described above.
5. The drug concentration that inhibits cell proliferation by 50% relative to untreated controls (IC50) was determined from cytotoxicity curves using the LSW Toolbox graphing application.

Where [2] appears, read: Homo sapiens, 120 h, 80S14 p21-deficient cells, 5 days incubation, read-out: IC50 for 80SI4.
The mark [3] stands for this setting: Homo sapiens, 96 h, LoVo colon cells.
The mark [4] stands for this setting: Homo sapiens, 120 h, 80S14 (p21-deficient) cells, 5 days, class symbols, read-out: IC50 for 80S14.
Setting [5] is: Homo sapiens, 96 h, Cellular activity in LoVo cell.
Setting [6] is: 80S14 (p21-deficient) cells, 5 days, class symbols, read-out: IC50 for 80S14.

Like-named read-outs stand apart in the source and are kept apart here. A value given as a limit tells only on which side of the number the result lay.

On to `O=C(Nc1cccc(-c2ccnc3c(C(=O)c4cccs4)cnn23)c1)OC1CCCCC1` [Example 172, cyclohexyl 3-(3-(thien-2-ylcarbonyl)pyrazolo[1,5-a]pyrimidin-7-yl]phenylcarbamate], for which the IC50 was below 1 µM in experiment [1] (setting [2]) and below 0.1 µM with LoVo Colon cell line (setting [3]).

For the molecule `O=C(NCC1CCCO1)Nc1cccc(-c2ccnc3c(C(=O)c4cccs4)cnn23)c1` (stereo not drawn) [Example 163, N-(tetrahydrofuran-2-ylmethyl)-N′-{3-[3-(thien-2-ylcarbonyl)pyrazolo[1,5-a]pyrimidin-7-yl]phenyl}urea], the IC50 in experiment [1] (setting [2]) is below 1 µM; in the experiment on LoVo Colon cell line (setting [3]), 0.1 to 1 µM.

Consider `O=C(c1cccs1)c1cnn2c(-c3csc([N+](=O)[O-])c3)ccnc12` [Example 328, [7-(5-Nitro-3-thienyl)pyrazolo[1,5-a]pyrimidin-3-yl](2-thienyl)methanone], for which the figures for the IC50 (in experiment [1] (setting [4]); in the experiment with LoVo Colon cell line (setting [5])) were 1 to 10 µM and 0.1 to 1 µM, respectively.

As for “N-{4-Chloro-3-[3-(thien-2-ylcarbonyl)pyrazolo[1,5-a]yrimidin-7-yl]phenyl}-N′-isopropylthiourea [Example 340]”, the IC50 lay in the range of 1 to 10 µM in experiment [1] (setting [6]) and 0.1 to 1 µM in the experiment on LoVo Colon cell line (Cellular activity in LoVo cell).

Consider `O=Cc1ccc(-c2cccc(-c3ccnc4c(C(=O)c5cccs5)cnn34)c2)cc1` [Example 458, 3′-[3-(Thien-2-ylcarbonyl)pyrazolo[1,5-a]pyrimidin-7-yl]-1,1′-biphenyl-4-carbaldehyde], for which the IC50 in experiment [1] (setting [4]) was 1 to 10 µM; in the experiment with LoVo Colon cell line (setting [5]) it was 0.1 to 1 µM.

Regarding `O=C(Nc1cccc(-c2ccnc3c(C(=O)c4cccs4)cnn23)c1)NC1CCCCC1` [Example 353, N-Cyclohexyl-N′-{3-[3-(thien-2-ylcarbonyl)pyrazolo[1,5-a]pyrimidin-7-yl]phenyl}urea], the IC50 in experiment [1] (setting [4]) was below 1 µM; in the experiment with LoVo Colon cell line (Cellular activity in LoVo cell), below 0.1 µM.

As to `CCCOC(=O)Nc1cccc(-c2cc(C)nc3c(C(=O)c4cccs4)cnn23)c1` [Example 194, propyl 3-[5-methyl-3-(thien-2-ylcarbonyl)pyrazolo[1,5-a]pyrimidin-7-yl]phenylcarbamate], the IC50 in experiment [1] (setting [2]) is below 1 µM; in the experiment on LoVo Colon cell line (setting [3]), below 0.1 µM.

As to `C/C=C(\C)CNc1cccc(-c2ccnc3c(C(=O)c4cccs4)cnn23)c1` [Example 431, [7-(3-{[(2E)-2-Methylbut-2-enyl]amino}phenyl)pyrazolo[1,5-a]pyrimidin-3-yl] (thien-2-yl)methanone], the IC50 in experiment [1] (setting [4]) fell in the range of 1 to 10 µM; in the experiment on LoVo Colon cell line (setting [5]) it was 0.1 to 1 µM.

As to `COc1cccc(-c2cnn3c(-c4cccc(NC(=O)CC(C)C)c4)ccnc23)c1` [Example 478, N-{3-[3-(3-Methoxyphenyl)pyrazolo[1,5-a]pyrimidin-7-yl]phenyl}-3-methylbutanamide], the IC50 in experiment [1] (setting [4]) was 10 to 50 µM; with LoVo Colon cell line (setting [5]), 1 to 20 µM.

With `CC(C)CC(=O)Nc1cccc(-c2ccnc3c(-c4cccc(CN5CCOCC5)c4)cnn23)c1` [Example 488, 3-Methyl-N-(3-{3-[3-(morpholin-4-ylmethyl)phenyl]pyrazolo[1,5-a]pyrimidin-7-yl}phenyl)butanamide], the IC50 lay within 10 to 50 µM in experiment [1] (setting [4]) and 1 to 20 µM with LoVo Colon cell line (setting [5]).

For `O=C(c1cccs1)c1cnn2c(-c3cccc(-c4ccc(CO)cc4)c3)ccnc12` [Example 452, {7-[4′-(Hydroxymethyl)-1,1′-biphenyl-3-yl]pyrazolo[1,5-a]pyrimidin-3-yl}(thien-2-yl)methanone], the IC50 in experiment [1] (setting [4]) was below 1 µM; in the experiment with LoVo Colon cell line (setting [5]), below 0.1 µM.

In the case of `O=C(c1cccs1)c1cnn2c(-c3cccc(NCC4CC=CCC4)c3)ccnc12` (stereo not drawn) [Example 436, (7-{3-[(cyclohex-3-en-1-ylmethyl)amino]phenyl}pyrazolo[1,5-a]pyrimidin-3-yl)-(thien-2-yl)-methanone], the IC50 in experiment [1] (setting [4]) is below 1 µM; in the experiment with LoVo Colon cell line (setting [5]), below 0.1 µM.

Turning to `O=C(CSc1ccncc1)Nc1cccc(-c2ccnc3c(C(=O)c4cccs4)cnn23)c1` [Example 449, 2-(Pyridin-4-ylthio)-N-{3-[3-(thien-2-ylcarbonyl)pyrazolo[1,5-a]pyrimidin-7-yl]phenyl}acetamide], the IC50 in experiment [1] (setting [4]) was 10 to 50 µM; in the experiment with LoVo Colon cell line (setting [5]) it was 0.1 to 1 µM.

As for “N-{3-[3-(thien-2-ylcarbonyl)pyrazolo[1,5-a]pyrimidin-7-ylphenyl}morpholne-4-carboxamide [Example 157]”, the IC50 in experiment [1] (80S14 p21-deficient cells, 5 days incubation, read-out: IC50 for 80SI4) is 1 to 10 µM; in the experiment with LoVo Colon cell line (LoVo colon cells), 0.1 to 1 µM.

For `O=C(c1cccs1)c1cnn2c(-c3cccc(NC(=O)N4CCCCC4)c3)ccnc12` [Example 155, N-{3-[3-(thien-2-ylcarbonyl)pyrazolo[1,5-a]pyrimidin-7-yl]phenyl}piperidine-1-carboxamide], the figures for the IC50 (in experiment [1] (setting [2]); with LoVo Colon cell line (setting [3])) were below 1 µM and below 0.1 µM, respectively.

Consider `CC(C)CC(=O)Nc1cc(-c2ccnc3c(C(=O)c4cccs4)cnn23)cs1` [Example 351, 3-Methyl-N-{4-[3-(thien-2-ylcarbonyl)pyrazolo[1,5-a]pyrimidin-7-yl]thien-2-yl}butanamide], for which the results for the IC50 (in experiment [1] (setting [4]); with LoVo Colon cell line (setting [5])) were 1 to 10 µM and 1 to 20 µM, respectively.

For the molecule `O=C(Nc1cc(-c2ccnc3c(C(=O)c4cccs4)cnn23)ccc1F)c1ccncc1` [Example 388, N-{2-Fluoro-5-[3-(thien-2-ylcarbonyl)pyrazolo[1,5-a]pyrimidin-7-yl]phenyl}isonicotinamide], the IC50 in experiment [1] (setting [4]) is below 1 µM; in the experiment on LoVo Colon cell line (setting [5]), below 0.1 µM.

In the case of `CC(C)CC(=O)Nc1cccc(-c2ccnc3c(-c4ccc5c(c4)OCO5)cnn23)c1` [Example 481, N-{3-[3-(1,3-Benzodioxol-5-yl)pyrazolo[1,5-a]pyrimidin-7-yl]phenyl}-3-methylbutanamide], the IC50 was in the range of 1 to 10 µM in experiment [1] (setting [4]) and 0.1 to 1 µM with LoVo Colon cell line (setting [5]).

With `O=C(Nc1cccc(-c2ccnc3c(C(=O)c4cccs4)cnn23)c1)c1c(F)cccc1F` [Example 359, 2,6-Difluoro-N-{3-[3-(thien-2-ylcarbonyl)pyrazolo[1,5-a]pyrimidin-7-yl]phenyl}benzamide], the IC50 is below 1 µM in experiment [1] (setting [4]) and below 0.1 µM in the experiment on LoVo Colon cell line (setting [5]).

As to “{7-[3-(1-Ethyl-1H-pyrazol-3-yl)phenyl]pyrazolo[1,5-a]pyrimidin-3-yl (thien-2-yl)methanone [Example 518]”, the values for the IC50 (in experiment [1] (setting [6]); in the experiment on LoVo Colon cell line (Cellular activity in LoVo cell)) were below 1 µM and below 0.1 µM, respectively.

Consider `CC(C)CC(=O)Nc1cccc(-c2ccnc3c(-c4ccc(-c5ccccc5)cc4)cnn23)c1` [Example 486, N-{3-[3-(1,1′-Biphenyl-4-yl)pyrazolo[1,5-a]pyrimidin-7-yl]phenyl}-3-methylbutanamide], for which the IC50 in experiment [1] (setting [4]) lay in the range of 10 to 50 µM; in the experiment on LoVo Colon cell line (setting [5]) it was 1 to 20 µM.

`O=C(CCCN1CCOCC1)Nc1cccc(-c2ccnc3c(C(=O)c4cccs4)cnn23)c1` [Example 423, 4-Morpholin-4-yl-N-{3-[3-(thien-2-ylcarbonyl)pyrazolo[1,5-a]pyrimidin-7-yl]phenyl}butanamide]: the values for the IC50 (in experiment [1] (setting [4]); with LoVo Colon cell line (setting [5])) were 1 to 10 µM and 0.1 to 1 µM, respectively.

`Cc1cc(-c2cccc(NC(=O)C3CC3)c2)n2ncc(C(=O)c3cccs3)c2n1` [Example 276, N-{3-[5-Methyl-3-(2-thienylcarbonyl)pyrazolo[1,5-a]pyrimidin-7-yl]phenyl}cyclopropanecarboxamide]: the results for the IC50 (in experiment [1] (setting [4]); in the experiment on LoVo Colon cell line (setting [5])) were below 1 µM and below 0.1 µM, respectively.

For `COc1ccc(/C=C/CNc2cccc(-c3ccnc4c(C(=O)c5cccs5)cnn34)c2)cc1` [Example 396, [7-(3-{[(2E)-3-(4-Methoxyphenyl)prop-2-enyl]amino}phenyl)pyrazolo[1,5-a]pyrimidin-3-yl](thien-2-yl)methanone], the results for the IC50 (in experiment [1] (setting [4]); with LoVo Colon cell line (setting [5])) were 10 to 50 µM and 1 to 20 µM, respectively.
